Test results from patent publication US8530493B2, “Indolopyridines as Eg5 kinesin modulators” (4SC AG, priority 2006, dated 2013).

The molecules below were run on RKO p21 uninduced (proliferating) colon adenocarcinoma cells (assay: Alamar Blue cell viability assay, RKO p21 uninduced (proliferating)). Details: Homo sapiens, Table B3, anti-proliferative/cytotoxic activity, 72 hours, read-out: −log EC50 RKO p21 uninduced (proliferating) (converted).
Format: cell-based
Description: The anti-proliferative/cytotoxic activity of the compounds described herein can be tested on subclones of RKO human colon adenocarcinoma cells (Schmidt et al., Oncogene 19, 2423-2429; 2000) using the Alamar Blue cell viability assay (described in O'Brien et al. Eur J Biochem 267, 5421-5426, 2000). The compounds are dissolved as 10 mM solutions in DMSO and subsequently diluted in semi-logarithmic steps. DMSO dilutions are further diluted 1:100 into Dulbecco's modified Eagle's medium (DMEM) containing 10% fetal calf serum to a final concentration twice as much as the final concentration in the test. RKO subclones are seeded into 96 well flat bottom plates at a density of 4000 cells per well in a volume of 50 μl per well. 24 hours after seeding the 50 μl each of the compound dilutions in DMEM medium are added into each well of the 96 well plate. Each compound dilution is tested as triplicates. Wells containing untreated control cells are filled with 50 μl DMEM medium containing 1% DMSO. The cells are then incubated with the substances for 72 hours at 37° C. in a humidified atmosphere containing 5% carbon dioxide. To determine the viability of the cells, 10 μl of an Alamar Blue solution (Biosource) are added and the fluorescence is measured at an extinction of 544 nm and an emission of 590 nm. For the calculation of the cell viability the emission value from untreated cells is set as 100% viability and the emission rates of treated cells are set in relation to the values of untreated cells. Viabilities are expressed as % values. The Graphpad Prism program is used for the calculation of EC50 values for anti-proliferative/cytotoxic activity out of the obtained dose-response curves.
To determine the cell cycle specific mode of action, subclones of RKO colon adenocarcinoma cells (RKOp21 or RKOp27 as described by Schmidt et al. in Oncogene 19, 2423-2429; 2000) are seeded into 96 well flat bottom plates at a density of 16000 cells per well in a volume of 50 μl per well in DMEM growth medium with 10% FCS containing 10 μM Ponasterone A. 24 hours after seeding the 50 μl each of the compound dilutions in DMEM medium are added into each well of the 96-well plate. Each compound dilution is tested as triplicates. Wells containing untreated control cells are filled with 50 μl DMEM medium containing 1% DMSO. The cells are then incubated with the substances for 72 hours at 37° C. in a humidified atmosphere containing 5% carbon dioxide. To determine the viability of the cells, 10 μl of an Alamar Blue solution (Biosource) are added and the fluorescence is measured at an extinction of 544 nm and an emission of 590 nm. For the calculation of the cell viability the emission value from untreated cells is set as 100% viability and the emission rates of treated cells are set in relation to the values of untreated cells. Viabilities are expressed as % values. The Graphpad Prism program (GraphPad Software, Inc) is used for the calculation of EC50 values out of the obtained dose-response curves. Viability is compared of proliferating cells grown in the absence of the inducer Ponasterone A, versus viability of cells arrested by the expression of ectopic p27Kip1 induced by Ponasterone A.
Representative values for anti-proliferation/cytotoxicity [measured as −log EC50 (mol/l)] determined in the aforementioned assays follow from the following tables B1, B2 and B3, in which the numbers of the compounds correspond to the numbers of the examples.
Molecule `C[C@@]12Cc3c([nH]c4cc(F)c(Cl)cc34)[C@@H](c3cccc(O)c3)N1C(=O)N(CCN1CC=CC1)C2=O` (racemic) [Example 355, (3aSR,10RS)-6-Chloro-2-[2-(2,5-dihydro-pyrrol-1-yl)-ethyl]-7-fluoro-10-(3-hydroxy-phenyl)-3a-methyl-3a,4,9,10-tetrahydro-2,9,10a-triaza-cyclopenta[b]fluorene-1,3-dione] has an EC50 of 39.8 to 251 nM. `C[C@@]12Cc3c([nH]c4ccc(OC(F)F)cc34)[C@@H](c3cccc(O)c3)N1C(=O)N(CCNC1CCC1)C2=O` (racemic) [Example 272, (3aSR,10RS)-2-(2-Cyclobutylamino-ethyl)-6-(1,1-difluoro-methoxy)-10-(3-hydroxy-phenyl)-3a-methyl-3a,4,9,10-tetrahydro-2,9,10a-triaza-cyclopenta[b]fluorene-1,3-dione] gave an EC50 of no more than 39.8 nM. Molecule `CC(C)CNCCN1C(=O)N2[C@H](c3cccc(O)c3)c3[nH]c4ccc(OC(F)F)cc4c3C[C@@]2(C)C1=O` (racemic) [Example 269, (3aSR,10RS)-6-(1,1-Difluoro-methoxy)-10-(3-hydroxy-phenyl)-2-(2-isobutylamino-ethyl)-3a-methyl-3a,4,9,10-tetrahydro-2,9,10a-triaza-cyclopenta[b]fluorene-1,3-dione] has an EC50 of no more than 39.8 nM. For `COc1cc2c3c([nH]c2cc1F)[C@@H](c1cccc(O)c1)N1C(=O)N(CCCNC(C)(C)C)C(=O)[C@]1(C)C3` (racemic) [Example 308, (3aSR,10RS)-2-(3-tert-Butylamino-propyl)-7-fluoro-10-(3-hydroxy-phenyl)-6-methoxy-3a-methyl-3a,4,9,10-tetrahydro-2,9,10a-triaza-cyclopenta[b]fluorene-1,3-dione], the EC50 was 39.8 to 251 nM. In the case of `C#CCNCCCN1C(=O)N2[C@H](c3cccc(O)c3)c3[nH]c4cc(F)c(Cl)cc4c3C[C@@]2(C)C1=O` (racemic) [Example 466, (3aSR,10RS)-6-Chloro-7-fluoro-10-(3-hydroxy-phenyl)-3a-methyl-2-(3-prop-2-ynylamino-propyl)-3a,4,9,10-tetrahydro-2,9,10a-triaza-cyclopenta[b]fluorene-1,3-dione], the EC50 is reported as 39.8 to 251 nM. For `CCOc1ccc2[nH]c3c(c2c1)C[C@@]1(C)C(=O)N(CCN(C)C(C)C)C(=O)N1[C@@H]3c1cccc(O)c1` (racemic) [Example 163, (3aSR,10RS)-6-Ethoxy-10-(3-hydroxy-phenyl)-2-[2-(isopropyl-methyl-amino)-ethyl]-3a-methyl-3a,4,9,10-tetrahydro-2,9,10a-triaza-cyclopenta[b]fluorene-1,3-dione], the EC50 was no more than 39.8 nM. Molecule `CCOc1ccc2[nH]c3c(c2c1)C[C@@]1(C)C(=O)N(CCCN2CC=CCC2)C(=O)N1[C@@H]3c1cccc(O)c1` (racemic) [Example 208, (3aSR,10RS)-2-[3-(3,6-Dihydro-2H-pyridin-1-yl)-propyl]-6-ethoxy-10-(3-hydroyx-phenyl)-3a-methyl-3a,4,9,10-tetrahydro-2,9,10a-triaza-cyclopenta[b]fluorene-1,3-dione] has an EC50 of 39.8 to 251 nM. Work on `CC(C)NCCN1C(=O)N2[C@H](c3cccc(O)c3)c3[nH]c4cc(F)c(Cl)cc4c3C[C@@]2(C)C1=O` (racemic) [Example 339, (3aSR,10RS)-6-Chloro-7-fluoro-10-(3-hydroxy-phenyl)-2-(2-isopropylamino-ethyl)-3a-methyl-3a,4,9,10-tetrahydro-2,9,10a-triaza-cyclopenta[b]fluorene-1,3-dione] yielded an EC50 of no more than 39.8 nM. `C[C@@]12Cc3c([nH]c4ccc(Cl)cc34)[C@@H](c3cccc(O)c3)N1C(=O)N(CCCN1CCCCCC1)C2=O` (racemic) [Example 180, (3aSR,10RS)-2-(3-Azepan-1-yl-propyl)-6-chloro-10-(3-hydroxy-phenyl)-3a-methyl-3a,4,9,10-tetrahydro-2,9,10a-triaza-cyclopenta[b]fluorene-1,3-dione] gave an EC50 of no more than 39.8 nM. For `CCOc1ccc2[nH]c3c(c2c1)C[C@@]1(C)C(=O)N(CCCN(C)CCO)C(=O)N1[C@@H]3c1cccc(O)c1` (racemic) [Example 193, (3aSR,10RS)-6-Ethoxy-2-{3-[(2-hydrox-ethyl)-methyl-amino]-propyl}-10-(3-hydroxy-phenyl)-3a-methyl-3a,4,9,10-tetrahydro-2,9,10a-triaza-cyclopenta[b]fluorene-1,3-dione], the EC50 was 39.8 to 251 nM. In the case of `CC(C)(C)NCCN1C(=O)N2[C@H](c3cccc(O)c3)c3[nH]c4ccc(Br)cc4c3C[C@@]2(C)C1=O` (racemic) [Example 378, (3aSR,10RS)-6-Bromo-2-(2-tert-butylamino-ethyl)-10-(3-hydroxy-phenyl)-3a-methyl-3a,4,9,10-tetrahydro-2,9,10a-triaza-cyclopenta[b]fluorene-1,3-dione], the EC50 is reported as no more than 39.8 nM. `C=CCN(C)CCCN1C(=O)N2[C@H](c3cccc(O)c3)c3[nH]c4cc(F)c(OC)cc4c3C[C@@]2(C)C1=O` (racemic) [Example 317, (3aSR,10RS)-2-[3-(Allyl-methyl-amino)-propyl]-7-fluoro-10-(3-hydroyx-phenyl)-6-methoxy-3a-methyl-3a,4,9,10-tetrahydro-2,9,10a-triaza-cyclopenta[b]fluorene-1,3-dione] showed an EC50 of 39.8 to 251 nM. Work on `CC(C)N(C)CCN1C(=O)N2[C@H](c3cccc(O)c3)c3[nH]c4ccc(OC(F)F)cc4c3C[C@@]2(C)C1=O` (racemic) [Example 278, (3aSR,10RS)-6-(1,1-Difluoro-methoxy)-10-(3-hydroxy-phenyl)-2-[2-(isopropyl-methyl-amino)-ethyl]-3a-methyl-3a,4,9,10-tetrahydro-2,9,10a-triaza-cyclopenta[b]fluorene-1,3-dione] yielded an EC50 of no more than 39.8 nM. With `CC(C)NCCCN1C(=O)N2[C@H](c3cccc(O)c3)c3[nH]c4cc(F)c(Cl)cc4c3C[C@@]2(C)C1=O` (racemic) [Example 458, (3aSR,10RS)-6-Chloro-7-fluoro-10-(3-hydroxy-phenyl)-2-(3-isopropylamino-propyl)-3a-methyl-3a,4,9,10-tetrahydro-2,9,10a-triaza-cyclopenta[b]fluorene-1,3-dione] the EC50 was 39.8 to 251 nM. Work on `C[C@@]12Cc3c([nH]c4ccc(OC(F)F)cc34)[C@@H](c3cccc(O)c3)N1C(=O)N(CCCN1CCOCC1)C2=O` (racemic) [Example 236, (3aSR,10RS)-6-(1,1-Difluoro-methoxy)-10-(3-hydroxy-phenyl)-3a-methyl-2-(3-morpholin-4-yl-propyl)-3a,4,9,10-tetrahydro-2,9,10a-triaza-cyclopenta[b]fluorene-1,3-dione] yielded an EC50 of 39.8 to 251 nM. `C[C@@]12Cc3c([nH]c4cc(F)c(Cl)cc34)[C@@H](c3cccc(O)c3)N1C(=O)N(CCCN1CCOCC1)C2=O` (racemic) [Example 475, (3aSR,10RS)-6-Chloro-7-fluoro-10-(3-hydroxy-phenyl)-3a-methyl-2-(3-morpholin-4-yl-propyl)-3a,4,9,10-tetrahydro-2,9,10a-triaza-cyclopenta[b]fluorene-1,3-dione] was tested, and the EC50 was 39.8 to 251 nM. With `CC(C)NCCN1C(=O)N2[C@H](c3cccc(O)c3)c3[nH]c4ccc(OC(F)F)cc4c3C[C@@]2(C)C1=O` (racemic) [Example 268, (3aSR,10RS)-6-(1,1-Difluoro-methoxy)-10-(3-hydroxy-phenyl)-2-(2-isopropylamino-ethyl)-3a-methyl-3a,4,9,10-tetrahydro-2,9,10a-triaza-cyclopenta[b]fluorene-1,3-dione] the EC50 was no more than 39.8 nM. Molecule `CN(CCO)CCN1C(=O)N2[C@H](c3cccc(O)c3)c3[nH]c4cc(F)c(Cl)cc4c3C[C@@]2(C)C1=O` (racemic) [Example 348, (3aSR,10RS)-6-Chloro-7-fluoro-2-{2-[(2-hydroxy-ethyl)-methyl-amino]-ethyl}-10-(3-hydroxy-phenyl)-3a-methyl-3a,4,9,10-tetrahydro-2,9,10a-triaza-cyclopenta[b]fluorene-1,3-dione] has an EC50 of 39.8 to 251 nM. Molecule `CC1CCN(CCN2C(=O)N3[C@H](c4cccc(O)c4)c4[nH]c5ccc(OC(F)F)cc5c4C[C@@]3(C)C2=O)CC1` (racemic) [Example 293, (3aSR,10RS)-6-(1,1-Difluoro-methoxy)-10-(3-hydroxy-phenyl)-3a-methyl-2-[2-(4-methyl-piperidin-1-yl)-ethyl]-3a,4,9,10-tetrahydro-2,9,10a-triaza-cyclopenta[b]fluorene-1,3-dione] has an EC50 of 39.8 to 251 nM.
